{"source": "patent US9415021B2", "about": "“Synthesis of oxygen carrying, turbulence resistant, high density submicron particulates” (Nanoshell Company, LLC, priority 2009, dated 2016)", "experiment": "Oxygen content of suspensions by glucose assay solution (glucose oxidase/peroxidase, absorbance at 540 nm) and Equation 1", "type": "physicochemical", "conditions": "37° C., 1 AP", "method": "To confirm the oxygen carrying capability of the single coated nanoemulsion particle AOCs, the amount of dissolved oxygen in water was measured. The linear dependence of the absorbance at 540 nm in response to the concentration of glucose was first confirmed at 37° C. in the presence of sufficient amount of oxygen, and then the limiting amount of oxygen concentration was estimated in the presence of sufficient amount of glucose. […] The DI water was added to make the total volume 1.41 μl and the absorbance determined at 540 nm. The absorbance was plotted against the molar concentration of dissolved oxygen assuming that the air at 1 AP and 37° C., water contains 215.6 μmol/L of O2. The experimentally determined oxygen content in the coated AOC suspension is a composite of oxygen content in water and in the perfluorocarbon. Quantitatively, CO2 total=CO2 PFC VPFC+CO2 water Vwater=CO2 PFC VPFC+CO2 water(1−VPFC) (Equation 1) where, CO2 total is the total oxygen concentration of the sample, and CO2 PFC and CO2 water are the concentrations of oxygen in PFC and water at a given partial pressure of oxygen and temperature, and similarly V's are the volume fractions of PFC and water. […] The reaction was allowed to proceed for 30 minutes at 37° C. and the absorption was measured at 540 nm in order to estimate the amount of oxygen present in the uncoated and coated products.", "data": [{"smiles": "FC(F)(F)C(F)(F)C(F)(F)C(F)(F)C(F)(F)C(F)(F)C(F)(F)C(F)(F)Br", "note": "[emulsified PFOB, perfluorooctylbromide]", "values": [{"measurement": "oxygen content, estimated CSAT", "value": "3,640 μmol/L"}]}]}
